Consider nine compounds from PubChem BioAssay (NCI).

“And” between values parts separate entries of the source, which are not always exact repeats. Equal values may be shown once.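 1) Cells in 96-well plates. 2) Compound, 48 h, 5 concentrations. 3) Linear interpolation between surrounding doses. 4) Unreached endpoint = highest concentration. The concentration for 50% growth inhibition is given as GI50. TGI: total growth inhibition.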

Test systems include COLO 205 colon; SK-MEL-28 melanoma; SNB-75 CNS; KM12 colon; HT29 colon; EKVX NSCLC; UO-31 renal; T-47D breast; U251 CNS; ACHN renal.
Assay in all cases: NCI-60 cell line screen, 48 h

`C[C@H]1CNC(=O)c2cnn3ccc(nc23)N[C@H](C)c2cc(F)ccc2O1`: the GI50 with COLO 205 colon was 0.779 µM; in the test on SK-MEL-28 melanoma it was 18.5 µM; in the test on SNB-75 CNS, 0.146 µM; with HT29 colon, 0.457 µM; in the test on EKVX NSCLC, 1.24 µM; in the test with UO-31 renal, 1.21 µM. The GI50 is 1.6 µM in the test with T-47D breast, 3.36 µM in the test on U251 CNS and 0.558 µM in the test on ACHN renal. The TGI with COLO 205 colon is 4.33 µM; with SK-MEL-28 melanoma, > 100 µM; in the test with SNB-75 CNS, 1.05 µM; in the test on KM12 colon, > 100 µM; in the test on EKVX NSCLC, > 75.4 µM; in the test with UO-31 renal, 3.56 µM. Also, the values for the TGI in the test with T-47D breast, with U251 CNS and in the test with ACHN renal were > 93.5 µM, > 100 µM and 4.36 µM, respectively.

Take `C=C1C(=O)O[C@H]2[C@H]1CC/C(COC(=O)OC/C1=C/CC[C@@]3(C)O[C@H]3[C@H]3OC(=O)[C@@H](CN(C)C)[C@@H]3CC1)=C\CC[C@@]1(C)O[C@@H]21`: the GI50 with COLO 205 colon is 0.487 µM; with SK-MEL-28 melanoma, 1.57 µM; in the test on SNB-75 CNS, 4.89 µM; in the test on KM12 colon it was 5.49 µM; in the test on HT29 colon, 0.996 µM; with EKVX NSCLC it was 2.17 µM. In addition, the GI50 with UO-31 renal was 1.04 µM; with T-47D breast, 0.714 µM; in the test with U251 CNS, 3.3 µM; in the test with ACHN renal, 0.457 µM. For the same compound, the TGI in the test on COLO 205 colon was determined as 1.93 µM; in the test on SK-MEL-28 melanoma, 4.23 µM; with SNB-75 CNS, 25.1 µM; in the test with KM12 colon, 18.7 µM; in the test on HT29 colon, 2.47 µM; in the test on EKVX NSCLC, 9.39 µM. Besides, the TGI was 2.25 µM with UO-31 renal, 3.08 µM in the test on T-47D breast, 12.5 µM in the test with U251 CNS and 1.69 µM in the test on ACHN renal.

On to `CCCCCCCCCCCCCCCCCCNC(=S)/N=C/c1c(O)c2ccccc2[nH]c1=O`, for which the TGI in the test on COLO 205 colon came out at 32.9 µM; in the test on SK-MEL-28 melanoma, 40.4 µM; in the test on SNB-75 CNS, 28 µM; in the test with KM12 colon, 30.9 µM; in the test with HT29 colon it was 30.9 µM; in the test on EKVX NSCLC, 29.6 µM. In addition, the TGI turned out to be 32.6 µM with UO-31 renal, 90.5 µM with T-47D breast, 40.5 µM in the test with U251 CNS and 30.9 µM in the test on ACHN renal.

For `Nc1nc(SCc2ccccc2Cl)cc(C(=O)O)n1`, the TGI in the test with COLO 205 colon, in the test on SK-MEL-28 melanoma, in the test with SNB-75 CNS, in the test with KM12 colon, in the test with HT29 colon and in the test on EKVX NSCLC was > 100 µM each time. In addition, the TGI in the test on UO-31 renal, with T-47D breast, in the test on U251 CNS and in the test on ACHN renal was > 100 µM each time.

`COc1cc(C(=O)O[C@H](C(=O)NCCN(C)CCNC(=O)[C@@H](OC(=O)c2cc(OC)cc3c(C)cccc23)[C@]2(C)CO2)[C@]2(C)CO2)c2cccc(C)c2c1`: the GI50 was 0.0391 µM in the test on COLO 205 colon; 0.171 µM in the test with SK-MEL-28 melanoma; 0.111 µM with SNB-75 CNS; 0.0549 µM in the test with KM12 colon; < 0.0184 µM in the test on HT29 colon; 0.106 µM in the test on EKVX NSCLC. For the same compound, the values for the GI50 with UO-31 renal, in the test on T-47D breast and in the test with U251 CNS were 0.417 µM, 0.0924 µM and < 0.01 µM, respectively. Further, the TGI in the test on COLO 205 colon is 1.55 µM; with SK-MEL-28 melanoma, 0.512 µM; with SNB-75 CNS, 1.02 µM; in the test on KM12 colon, 0.465 µM; in the test with HT29 colon, > 27 µM; in the test with EKVX NSCLC, 1.72 µM. Further, the figures for the TGI in the test with UO-31 renal, in the test on T-47D breast and in the test with U251 CNS were > 100 µM, 1.7 µM and 0.0139 µM, respectively.

Consider `CCCCCCCCCCCCCCCCOP(=O)([O-])OCC[N+](C)(C)C`, for which the GI50 in the test on COLO 205 colon was 0.424 µM; in the test with SK-MEL-28 melanoma, 3.65 µM; in the test on SNB-75 CNS, 1.43 µM; in the test with KM12 colon, 0.341 µM; in the test on HT29 colon, 0.39 µM; in the test on EKVX NSCLC it was 2.63 µM. Further, the GI50 was 1.47 µM in the test with UO-31 renal, 4.42 µM in the test on T-47D breast, 1.05 µM with U251 CNS and 1.6 µM in the test on ACHN renal. Also, the TGI in the test on SK-MEL-28 melanoma was 14.2 µM and 58.5 µM; in the test on KM12 colon, 1.78 µM and 10.3 µM; with EKVX NSCLC it was 11.1 µM and 58.6 µM; in the test with T-47D breast it was 16.2 µM and 35.9 µM; in the test with ACHN renal it was 3.63 µM and 30.8 µM.

Take `CCC1(OC(=O)CN)C(=O)OCc2c1cc1n(c2=O)Cc2cc3ccccc3nc2-1` (stereo not given): the GI50 is 0.276 µM with COLO 205 colon; 0.851 µM in the test on SK-MEL-28 melanoma; 0.0183 µM with SNB-75 CNS; 0.022 µM in the test with KM12 colon; 0.111 µM and 0.0374 µM with HT29 colon; 0.164 µM with EKVX NSCLC. The results for the GI50 in the test with T-47D breast, in the test with U251 CNS and in the test on ACHN renal were 0.0426 µM, 0.0118 µM and 0.00476 µM, respectively. Also, the TGI was 0.667 µM in the test on COLO 205 colon; 38.7 µM with SK-MEL-28 melanoma; 0.246 µM and 0.484 µM with SNB-75 CNS; 0.754 µM and 4.01 µM with KM12 colon; > 100 µM with HT29 colon; 17.4 µM in the test with EKVX NSCLC. For the same compound, the TGI is 0.174 µM in the test with UO-31 renal; 0.916 µM in the test on T-47D breast; 0.333 µM and 0.636 µM in the test with U251 CNS; 0.183 µM and 0.0628 µM with ACHN renal.

In the case of `O=C(Nc1ccc(F)cc1)Nc1ccc(Br)c(C(F)(F)F)c1`, the GI50 in the test on COLO 205 colon is 1.72 µM; in the test with SK-MEL-28 melanoma, 2.83 µM; with SNB-75 CNS it was 1.79 µM; in the test on KM12 colon, 1.96 µM; with HT29 colon it was 2.3 µM; with EKVX NSCLC, 2.4 µM. Besides, the GI50 was 2.35 µM with UO-31 renal, 1.62 µM with T-47D breast, 2.14 µM in the test with U251 CNS and 2.09 µM with ACHN renal. Further, the TGI in the test with COLO 205 colon worked out at 3.27 µM; with SK-MEL-28 melanoma, 11.1 µM; in the test on SNB-75 CNS, 5.38 µM; with KM12 colon, 7.92 µM; in the test on HT29 colon, 10.9 µM; in the test with EKVX NSCLC, 10.6 µM. For the same compound, the TGI in the test on UO-31 renal was found to be 10.6 µM; in the test on T-47D breast, 7.4 µM; in the test on U251 CNS, 7.47 µM; in the test with ACHN renal, 7.64 µM.

In the case of `O=C1C=Cc2c1ccc1ccccc21`, the GI50 with COLO 205 colon is 30.9 µM; with SK-MEL-28 melanoma, 80.4 µM; in the test on SNB-75 CNS, 35.4 µM; with KM12 colon, 24.5 µM; in the test with HT29 colon it was 58.8 µM; in the test with EKVX NSCLC, 12.6 µM. For the same compound, the GI50 with UO-31 renal is 26.7 µM; with T-47D breast, 37.9 µM; in the test with U251 CNS, 24.5 µM; in the test on ACHN renal it was 17.1 µM. The TGI in the test on COLO 205 colon was > 100 µM; in the test on SK-MEL-28 melanoma, > 100 µM; with SNB-75 CNS, > 100 µM; in the test on KM12 colon, 77.5 µM; in the test on HT29 colon, > 100 µM; in the test with EKVX NSCLC it was 61.3 µM. In addition, the TGI was > 100 µM in the test with UO-31 renal, > 100 µM in the test on T-47D breast, > 100 µM in the test with U251 CNS and 58.7 µM in the test on ACHN renal.
